Experimental data as given in paper PMC6316600, “Analgesic Activity of Acid-Sensing Ion Channel 3 (ASIС3) Inhibitors: Sea Anemones Peptides Ugr9-1 and APETx2 versus Low Molecular Weight Compounds” (Marine Drugs, 2018).
Bridge positions count the residues as written; N and C are the ends. Ends that are not written are not given here.

What was measured:
ASIC3 = conditions: cited from earlier work
Description: (§1) An inhibition of ASIC3 was reported to be an attractive approach to producing analgesia. […] Other nonspecific substances can also influence ASIC3 activity.

ASIC1b = conditions: cited from earlier work
Description: as §1

ASIC1a = conditions: cited from earlier work
Description: as §1

[1] = test system: voltage-gated Na^+-channels; set-up: method as in PMID 22648244; conditions: cited from earlier work
[2] = test system: proton-gated currents in DRG neurons; set-up: method as in PMID 25395088; conditions: cited from earlier work
animal models of pain = conditions: cited from earlier work
[3] = test system: CFA-induced thermal hyperalgesia; conditions: rats; cited from earlier work
Procedure: An inhibition of ASIC3 was reported to be an attractive approach to producing analgesia. […] Other nonspecific substances can also influence ASIC3 activity. […] Several ligands with inhibitory properties were found for this receptor, each of which was able to induce analgesia in animal tests. The most well-known inhibitor APETx2 in various studies has been tested on models of acid-induced muscle pain model, CFA-induced inflammatory pain model (at doses of 0.07, 0.22 and 2.2 µM). Ugr9-1 was studied in models of CFA-induced thermal hyperalgesia and acetic acid writhing test (at doses of 0.5, 0.1, and 0.01 mg/kg). […] The nonspecific actions on other cellular targets and the changes of ASIC3 involvement in the inflammatory process induced by the high antagonists’ concentration for 2 h are suspected. We conclude that the inhibition of both components of ASIC3 currents could be beneficial but could be reversed by hormesis in high doses and during a long exposure to ...

human ASIC3 = target: T1, human ASIC3 (Homo sapiens, UniProt Q9UHC3); assay: Inhibition of transient hASIC3 current, two-electrode voltage clamp, Xenopus laevis oocytes; assay type: cell-based
T1 construct: host or cells: Xenopus laevis oocytes (cRNA injection)
T1 sequence (Q9UHC3 1-531): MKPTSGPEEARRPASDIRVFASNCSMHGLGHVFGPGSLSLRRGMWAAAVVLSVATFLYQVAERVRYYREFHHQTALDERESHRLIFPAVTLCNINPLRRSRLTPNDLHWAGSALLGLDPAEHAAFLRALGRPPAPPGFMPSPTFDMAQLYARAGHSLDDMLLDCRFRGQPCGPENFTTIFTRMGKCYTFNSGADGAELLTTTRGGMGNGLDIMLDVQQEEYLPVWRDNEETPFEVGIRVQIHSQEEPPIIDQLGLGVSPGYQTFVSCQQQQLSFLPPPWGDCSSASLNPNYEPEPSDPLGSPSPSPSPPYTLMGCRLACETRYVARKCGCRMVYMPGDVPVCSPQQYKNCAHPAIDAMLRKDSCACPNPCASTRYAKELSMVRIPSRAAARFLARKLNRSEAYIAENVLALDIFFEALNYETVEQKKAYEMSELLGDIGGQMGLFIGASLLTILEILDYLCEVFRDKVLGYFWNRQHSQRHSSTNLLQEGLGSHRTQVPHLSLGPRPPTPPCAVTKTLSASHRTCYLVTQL
Procedure: The activity of ligands was checked on human ASIC3 (hASIC3) channels expressed in Xenopus laevis oocytes. […] Two different protocols were used to reveal the effects of ligands on sustained and transient components of acid-induced hASIC3 currents. The influence of the compounds on the transient current amplitude was estimated after preincubation for 15 s before the activation in a low alkali bath solution (pH 7.8), which ensured an absence of steady-state desensitization for the transient current (Figure 1A). The compounds’ inhibition effectiveness was calculated using the value of maximal amplitudes. […] The inhibitory effect was concentration-dependent and fit well using a logistic equation.
Figure 1 Comparison of ligands’ antagonistic effects on hASIC3 channels. Whole-cell currents were induced by pH drops and recorded at the holding potential −50 mV. (A) Effect of ligands on the transient component of current at conditioning pH 7.8. The control trace is shown first; (B) Effect of ligands on the sustained component at conditioning pH 7.3. The black line is the control trace, and the red line is the trace of activation in the presence of a ligand. Dose-response curves for transient (C) and sustained (D) currents’ inhibitions are shown. Data are shown as mean ± SEM (n = 4–6) and fitted with the logistic equation (solid lines).
X. laevis oocytes were removed surgically and defolliculated by collagenase (Sigma-Aldrich, Moscow, Russia). Oocytes were injected with 2.5 to 10 ng of human ASIC3 cRNA (AF057711.1). The cRNA transcripts were synthesised from a NaeI-linearized ASIC3 cDNA template (pcDNA3.1+humanASIC3 subcloned from clone EX-Q0260- B02 (GeneCopoeia, Inc., Rockville, MD USA) using a HiScribe T7 High Yield RNA Synthesis Kit (New England Biolabs, Ipswich, MA, USA) according to the manufacturer’s protocol for capped transcripts. After the injection, oocytes were kept for 3 to 6 days at 19° in a ND-96 medium containing (in mM) 96 NaCl, 2 KCl, 1.8 CaCl2, 1 MgCl2, and 5 HEPES titrated to pH 7.4 with NaOH supplemented with gentamycin (50 µg/mL). Two-electrode voltage clamp recordings were performed using a GeneClamp 500 amplifier (Axon Instruments, Union City, CA, USA), and the data were filtered at 20 Hz and digitized at 100 Hz by an AD converter L780 (LCard, Moscow, Russia) using in-house software. To induce transient and/or sustained currents, two different protocols with different conditioning pH were used. Microelectrodes were filled with a 3 M KCl solution. The working buffer solution was ND-96 titrated by NaOH to pH 7.8 or 7.3. The solution for the pH shift was constructed based on the ND-96 solution, in which 5 mM HEPES was replaced with 10 mM acetic acid (pH 4.0) or 10 mM MES (pH 5.5) in a supplementary 0.1% BSA solution. The duration of the activation pulses was 3.5 s.
The analysis of the electrophysiological data was performed using the OriginPro 8.6 programme.

mice = assay: Open field test; assay type: in vivo, CD-1 mice; conditions: 1 mg/kg intramuscular, 4 h before; n = 6–7
Procedure: An open field test was carried out on mice to estimate the possible sedative effects of compounds administration. No statistically significant changes were detected between ASIC3 antagonist-treated groups and the control animals group in 5-min observations of 12 parameters.
Figure 2 Open field experiments on mice. Administration of compounds at a 1 mg/kg dose intramuscularly was done 4 h before of the measurements. (A) Travelling distance and (B) locomotion activity presented as mean ± SEM for 5-min recording period (n = 6–7).
Adult male CD-1 mice (Animal Breeding Facility Branch of Shemyakin-Ovchinnikov Institute of Bioorganic Chemistry, Russian Academy of Sciences, Pushchino, Russia) weighing 20–25 g were used. Animals that originally passed clinical examination that confirmed no deviations in health were divided into groups (at least eight male mice per group) using the principle of randomization. The average body weight of animals in each group was not statistically different between groups. Animals were housed at room temperature (23 ± 2 °C) and subjected to a 12-h light-dark cycle with food and water available ad libitum. All experiments were performed after receiving approval from the Animal Care and Use Committee of the Branch of the Institute of Bioorganic Chemistry, Russian Academy of Sciences (IBCh RAS) (Pushchino, Russia Federation). The samples were administered intramuscularly 2 h before testing (4 h in the open field test). The initial dose of 1 mg/kg was investigated for all samples, which was further reduced 5, 50, and 500 times for peptides.
In the locomotion measurements, exploration and anxiety were evaluated in the motor activity test on a computerized TSE Multi Conditioning System (TSE Systems GmbH, Bad Homburg, Germany). Four hours after the administration of the sample, the measurement was made, which lasted for 3 min. […]
The data significance in animal tests was determined by an analysis of variance followed by a Tukey’s test. […]

hERG channels = conditions: cited from earlier work
Procedure: Moreover, APETx2 potentiates rat ASIC1b and ASIC2a at concentrations of 3–10 µM (30–100-fold higher than its ASIC3 inhibitory concentration), which may have implications for its use in in vivo experiments ...

O=C(O)c1ccccc1O [salicylic acid]
Inhibition of ASIC3 / ASICs currents (ASIC3; sensory neurons and heterologous-expressed ASIC3): inhibit ASICs currents directly on sensory neurons and heterologous-expressed ASIC3 channels

CCCCNc1ccc(C(=O)OCCN(C)C)cc1 [tetracaine]
Inhibition of ASIC1b currents (ASIC1b): inhibited the ASIC1a and ASIC1b currents | Inhibition of transient ASIC3 currents (ASIC3; dependence on extracellular pH): inhibit the transient ASIC3 currents in a concentration-dependent manner | Inhibition of ASIC1a currents (ASIC1a): inhibited the ASIC1a and ASIC1b currents

N=C(N)NC(=O)c1nc(Cl)c(N)nc1N [amiloride]
Inhibition of ASICs / ASIC3 (ASIC3): nonspecific inhibitory effect on ASICs

COc1ccc2ccc(=O)oc2c1CC=C(C)C [osthol]
Inhibition of ASIC3 (ASIC3): inhibit ASIC3 | Block of voltage-gated Na+-channels [1]: block voltage-gated Na^+-channels

COc1cc2c(cc1OC)[C@@H]1Cc3ccc(OC)c(OC)c3CN1CC2 [Levo-tetrahydropalmatine, reference compound]
Effect on amplitude of proton-gated currents [2]: decreased the amplitude of proton-gated currents | Nociceptive response to intraplantar acetic acid (animal models of pain; rats): inhibited the nociceptive response to intraplantar acetic acid injections

psalmotoxin 1 (EDCIPKWKGCVNRHGDCCEGLECWKRRRSFEVCVPKTPKT; UniProt P60514 1-40, looked up) [reference compound]
Analgesic effect by blockade of ASIC1a in CNS (animal models of pain; CNS): activation of the endogenous enkephalin pathway and potent analgesic effects

CC(C)C1c2cc(C3CC3c3ccc4cc(C(=N)N)ccc4c3)ccc2CCN1C (stereo not drawn) [A-317567]
Inhibition of ASIC3 sustained and transient currents (ASIC3): blocked ASIC3’s sustained and transient currents | Analgesic effect, CFA inflammatory thermal hyperalgesia [3]: produced an analgesic effect

GTACSCGNSKGIYWFYRPSCPTDRGYTGSCRYFLGTCCTPAD (disulfide 4-37, 6-30, 20-38) [APETx2]
IC50 (human ASIC3): 344 ± 80 nM | Travelled distance, time spent freezing, distance in the central area versus control (mice): each of these differences was nonsignificant | Inhibition of hERG channels (hERG channels): reducing the maximal current amplitude and shifting the voltage dependence of activation to more positive potentials
